From PubChem BioAssay AID330 (DTP/NCI, 2004)
“And” between values parts separate entries of the source, which are not always exact repeats. Identical values can stand only once. Inconclusive results and toxic doses are left out.

System: P388 leukemia ip, CD2F1 mice, survival T/C
Assay: NCI In Vivo Anticancer Drug Screen. Data for tumor model P388 Leukemia (intraperitoneal) in CD2F1 (CDF1) mice
Conditions: endpoint: median survival time, higher = longer survival
Outline: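 Mice carrying the transplanted tumor received test compound or vehicle. Survival was recorded in each group, and the value is the treated-group measurement divided by that of the vehicle-treated control group.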

[1] = dose: 25.0 mg/kg/injection, schedule: Q01DX009 (ip), vehicle: distilled water + Tween-80
[2] = dose: 50.0 mg/kg/injection, schedule: Q01DX009 (ip), vehicle: distilled water + Tween-80
[3] = dose: 100.0 mg/kg/injection, schedule: Q01DX009 (ip), vehicle: distilled water + Tween-80
[4] = dose: 200.0 mg/kg/injection, schedule: Q01DX009 (ip), vehicle: distilled water + Tween-80
[5] = dose: 6.25 mg/kg/injection, schedule: Q01DX009 (ip), vehicle: saline with Tween-80
[6] = dose: 50.0 mg/kg/injection, schedule: Q01DX009 (ip), vehicle: saline with Tween-80
[7] = dose: 100.0 mg/kg/injection, schedule: Q01DX009 (ip), vehicle: saline with Tween-80
[8] = dose: 200.0 mg/kg/injection, schedule: Q01DX009 (ip), vehicle: saline with Tween-80
[9] = dose: 25.0 mg/kg/injection, schedule: Q01DX009 (ip), vehicle: saline with Tween-80
[10] = dose: 50.0 mg/kg/injection, schedule: Q01DX009 (ip), vehicle: saline
[11] = dose: 100.0 mg/kg/injection, schedule: Q01DX009 (ip), vehicle: saline
[12] = dose: 12.5 mg/kg/injection, schedule: Q01DX009 (ip), vehicle: saline with Tween-80
[13] = dose: 50.0 mg/kg/injection, schedule: Q04DX003 (ip), vehicle: saline with Tween-80

O=C1c2c(O)ccc(O)c2C(=O)c2c(NCCCO)ccc(NCCCO)c21
T/C (dose: 0.62 mg/kg/injection, schedule: Q01DX009 (ip), vehicle: acid diluted with saline): 110 % of control | T/C (dose: 1.25 mg/kg/injection, schedule: Q01DX009 (ip), vehicle: acid diluted with saline): 103 % of control | T/C (dose: 2.5 mg/kg/injection, schedule: Q01DX009 (ip), vehicle: acid diluted with saline): 100 % of control | T/C (dose: 5.0 mg/kg/injection, schedule: Q01DX009 (ip), vehicle: acid diluted with saline): 107 % of control | T/C (dose: 10.0 mg/kg/injection, schedule: Q01DX009 (ip), vehicle: acid diluted with saline): 98 % of control | T/C (dose: 20.0 mg/kg/injection, schedule: Q01DX009 (ip), vehicle: acid diluted with saline): 100 % of control | T/C (dose: 40.0 mg/kg/injection, schedule: Q01DX009 (ip), vehicle: acid diluted with saline): 100 % of control | T/C (dose: 80.0 mg/kg/injection, schedule: Q01DX009 (ip), vehicle: acid diluted with saline): 91 % of control

CC1(C)OC[C@@H](N)[C@@H](O)CO1
T/C (dose: 60.0 mg/kg/injection, schedule: Q01DX005 (ip), vehicle: saline): 104 % of control | T/C (dose: 120.0 mg/kg/injection, schedule: Q01DX005 (ip), vehicle: saline): 104 % of control | T/C (dose: 240.0 mg/kg/injection, schedule: Q01DX005 (ip), vehicle: saline): 118 % of control

CC(C)CNC(=O)C(=O)NCC(C)C
T/C (dose: 25.0 mg/kg/injection, schedule: Q01DX001 (ip), vehicle: Klucel (hydroxypropylcellulose) (HPC)): 98 % of control | T/C (dose: 50.0 mg/kg/injection, schedule: Q01DX001 (ip), vehicle: Klucel (hydroxypropylcellulose) (HPC)): 101 % of control | T/C (dose: 100.0 mg/kg/injection, schedule: Q01DX001 (ip), vehicle: Klucel (hydroxypropylcellulose) (HPC)): 101 % of control

O=c1c(OCc2ccccc2)cccn1Cc1ccccc1
T/C [1]: 92 % of control | T/C [2]: 95 % of control | T/C [3]: 100 % of control | T/C [4]: 95 % of control | T/C (dose: 400.0 mg/kg/injection, schedule: Q01DX009 (ip), vehicle: distilled water + Tween-80): 101 % of control

O=C1OCCN1/N=C/C=N/N1CCOC1=O
T/C (dose: 1.56 mg/kg/injection, schedule: Q01DX009 (ip), vehicle: saline with Tween-80): 95 % of control | T/C (dose: 3.12 mg/kg/injection, schedule: Q01DX009 (ip), vehicle: saline with Tween-80): 95 % of control | T/C [5]: 105 % of control

COc1c(O)c(O)cc2c1-c1ccc(OC)c(=O)cc1C(NC(C)=O)CC2 (centres undefined)
T/C (dose: 1.25 mg/kg/injection, schedule: Q01DX009 (ip), vehicle: water): 114 % of control | T/C (dose: 2.5 mg/kg/injection, schedule: Q01DX009 (ip), vehicle: water): 117 % of control | T/C (dose: 20.0 mg/kg/injection, schedule: Q01DX009 (ip), vehicle: water): 166 % of control and 177 % of control | T/C (dose: 40.0 mg/kg/injection, schedule: Q01DX009 (ip), vehicle: water): 204 % of control

O=C1CSC(=O)N1c1ccc(F)cc1
T/C (dose: 6.25 mg/kg/injection, schedule: Q01DX009 (ip), vehicle: saline): 98 % of control | T/C (dose: 12.5 mg/kg/injection, schedule: Q01DX009 (ip), vehicle: saline): 113 % of control | T/C (dose: 25.0 mg/kg/injection, schedule: Q01DX009 (ip), vehicle: saline): 114 % of control | T/C [6]: 106 % of control | T/C [7]: 104 % of control | T/C [8]: 87 % of control

COC(=O)C(NC(=O)OCc1ccccc1)C(C)O (centres undefined)
T/C (dose: 12.5 mg/kg/injection, schedule: Q01DX009 (ip), vehicle: distilled water + Tween-80): 90 % of control | T/C [1]: 102 % of control | T/C [2]: 100 % of control | T/C [3]: 105 % of control | T/C [4]: 94 % of control

O=C1c2ccccc2C(=O)N1CCCN1CCOCCOCCN(CCCN2C(=O)c3ccccc3C2=O)CCOCC1
T/C (dose: 50.0 mg/kg/injection, schedule: Q01DX005 (ip), vehicle: saline + Tween-80 + alcohol): 105 % of control | T/C (dose: 100.0 mg/kg/injection, schedule: Q01DX005 (ip), vehicle: saline + Tween-80 + alcohol): 97 % of control

O=NNc1ccc(Cl)cn1
T/C (dose: 3.12 mg/kg/injection, schedule: Q01DX009 (ip), vehicle: water): 123 % of control | T/C (dose: 12.5 mg/kg/injection, schedule: Q01DX009 (ip), vehicle: water): 187 % of control

CNc1nc(NC)nc(N(C)C=O)n1
T/C [9]: 95 % of control | T/C [6]: 90 % of control

Cc1csc(=S)n1C
T/C [10]: 92 % of control | T/C [11]: 95 % of control

O=C1OCC/C1=C1/NCCNC1=O
T/C [6]: 91 % of control | T/C [7]: 116 % of control | T/C [8]: 109 % of control

CC(=O)OC1=CC(=O)N(C(=O)c2ccccc2)C1
T/C (dose: 50.0 mg/kg/injection, schedule: Q01DX009 (ip), vehicle: Klucel (hydroxypropylcellulose) (HPC)): 105 % of control | T/C (dose: 100.0 mg/kg/injection, schedule: Q01DX009 (ip), vehicle: Klucel (hydroxypropylcellulose) (HPC)): 116 % of control | T/C (dose: 200.0 mg/kg/injection, schedule: Q01DX009 (ip), vehicle: Klucel (hydroxypropylcellulose) (HPC)): 113 % of control

CCCCOC1CCC2(C)C(=CCC3C2CCC2(C)C(C(C)CCCC(C)C)CCC32)C1 (centres undefined)
T/C (dose: 100.0 mg/kg/injection, schedule: Q04DX003 (sc), vehicle: steriod suspending solution): 104 % of control | T/C (dose: 200.0 mg/kg/injection, schedule: Q04DX003 (sc), vehicle: steriod suspending solution): 100 % of control | T/C (dose: 400.0 mg/kg/injection, schedule: Q04DX003 (sc), vehicle: steriod suspending solution): 100 % of control

NS(=O)(=O)c1ncnc2nc[nH]c12
T/C (dose: 10.0 mg/kg/injection, schedule: Q01DX009 (ip), vehicle: saline with Tween-80): 112 % of control | T/C (dose: 15.0 mg/kg/injection, schedule: Q01DX009 (ip), vehicle: saline with Tween-80): 112 % of control | T/C (dose: 30.0 mg/kg/injection, schedule: Q01DX009 (ip), vehicle: saline with Tween-80): 90 % of control | T/C (dose: 60.0 mg/kg/injection, schedule: Q01DX009 (ip), vehicle: saline with Tween-80): 104 % of control

C[N+]1(C)N=C([O-])N(c2ccccc2C(F)(F)F)C1=O
T/C [12]: 99 % of control | T/C [9]: 99 % of control | T/C [6]: 106 % of control

CCC(=O)Oc1ccccc1C
T/C (dose: 12.5 mg/kg/injection, schedule: Q04DX003 (ip), vehicle: saline with Tween-80): 103 % of control | T/C (dose: 25.0 mg/kg/injection, schedule: Q04DX003 (ip), vehicle: saline with Tween-80): 105 % of control | T/C [13]: 103 % of control | T/C (dose: 100.0 mg/kg/injection, schedule: Q04DX003 (ip), vehicle: saline with Tween-80): 103 % of control

CC(C)(C)c1noc2c1C(=O)c1ccccc1-2
T/C (dose: 60.0 mg/kg/injection, schedule: Q01DX005 (ip), vehicle: Klucel (hydroxypropylcellulose) (HPC)): 99 % of control | T/C (dose: 120.0 mg/kg/injection, schedule: Q01DX005 (ip), vehicle: Klucel (hydroxypropylcellulose) (HPC)): 91 % of control | T/C (dose: 240.0 mg/kg/injection, schedule: Q01DX005 (ip), vehicle: Klucel (hydroxypropylcellulose) (HPC)): 96 % of control

CS(=O)(=O)N1CCCN(S(C)(=O)=O)COC1
T/C (dose: 60.0 mg/kg/injection, schedule: Q01DX005 (ip), vehicle: saline with Tween-80): 99 % of control | T/C (dose: 120.0 mg/kg/injection, schedule: Q01DX005 (ip), vehicle: saline with Tween-80): 101 % of control | T/C (dose: 240.0 mg/kg/injection, schedule: Q01DX005 (ip), vehicle: saline with Tween-80): 101 % of control

Cc1cc[n+](C2=C(Nc3cc(C)cc(C)c3)C(=O)c3ccccc3C2=O)cc1
T/C (dose: 50.0 mg/kg/injection, schedule: Q01DX005 (ip), vehicle: saline with Tween-80): 111 % of control | T/C (dose: 100.0 mg/kg/injection, schedule: Q01DX005 (ip), vehicle: saline with Tween-80): 119 % of control | T/C (dose: 200.0 mg/kg/injection, schedule: Q01DX005 (ip), vehicle: saline with Tween-80): 90 % of control

CCN(CC)c1c(C)nnc2c3c(-c4ccccc4)c(-c4ccccc4)nnc3nn12
T/C [13]: 86 % of control | T/C (dose: 200.0 mg/kg/injection, schedule: Q04DX003 (ip), vehicle: saline with Tween-80): 86 % of control | T/C (dose: 400.0 mg/kg/injection, schedule: Q04DX003 (ip), vehicle: saline with Tween-80): 91 % of control

CCCc1[nH]n(-c2cccc([N+](=O)[O-])c2)c(=O)c1N=Nc1ccc(Cl)cc1
T/C [10]: 93 % of control | T/C [11]: 90 % of control | T/C (dose: 200.0 mg/kg/injection, schedule: Q01DX009 (ip), vehicle: saline): 87 % of control

[C-]#[N+]C([N+]#[C-])=C(C)OCC
T/C [5]: 98 % of control | T/C [12]: 89 % of control | T/C [9]: 105 % of control | T/C [11]: 101 % of control
